Laboratory results from patent publication US9879023B2, “Therapeutic compounds” (Gilead Sciences, Inc., priority 2011, dated 2018).

What follows are compounds tested on HIV-IIIb (MT-4 cells) (assay: Test A: Antiviral Assays in MT4 Cells). Details: Human immunodeficiency virus 1, IIIB, MT4, 120 h.
Format: cell-based
Experimental: Test A: Antiviral Assays in MT4 Cells
For the antiviral assay utilizing MT-4 cells, 0.4 μL of […] test concentration of 3-fold serially diluted compound in DMSO was added to 40 μL of cell growth medium (RPMI 1640, 10% FBS, 1% penicilline/Streptomycine, 1% L-Glutamine, 1% HEPES) in each well of 384-well assay plates (10 concentrations) in quadruplicate.
1 mL aliquots of 2×10e6 MT-4 cells are pre-infected for 1 and 3 hrs respectively, @37° C. with 25 uL (MT4) or of either cell growth medium (mock-infected) or a fresh 1:250 dilution of an HIV-IIIb concentrated ABI stock (0.004 m.o.i. for MT4 cells). Infected and uninfected cells are diluted in cell growth medium and 35 uL of 2000 (for MT4) cells is added to each well of the assay plates.
Assay plates were then incubated in a 37° C. incubator. After 5 days of incubation, 25 μl of 2× concentrated CellTiter-Glo™ Reagent (catalog # G7573, Promega Biosciences, Inc., Madison, Wis.) was added to each well of the assay plate. Cell lysis was carried out by incubating at room temperature for 2-3 min and then chemiluminescence was read using the Envision reader (PerkinElmer). […]

Row | Structure (SMILES) | EC50 [nM]
1 | Cc1cc2nc(N(C)C)sc2c(-c2ccc3c4c(ccnc24)CCO3)c1[C@H](OC(C)(C)C)C(=O)O (atropisomer, axis not shown) [Compound 43, (S)-2-tert-butoxy-2-((R)-7-(2,3-dihydropyrano[4,3,2-de]quinolin-7-yl)-2-(dimethylamino)-5-methylbenzo[d]thiazol-6-yl)acetic acid] | 5090

Same assay, conditions: Human immunodeficiency virus 1, IIIB, MT4, 120 h, MT-4 cells infected with HIV-IIIb (0.004 m.o.i.), 5 days incubation, CellTiter-Glo readout; read-out: EC50

Row | Structure (SMILES) | EC50 [nM]
2 | Cc1cc2c(sc(=O)n2C)c(-c2ccc3c4c(ccnc24)CCO3)c1[C@H](OC(C)(C)C)C(=O)O (atropisomer, axis not shown) [Compound 68, (S)-2-tert-butoxy-2-((S)-7-(2,3-dihydropyrano[4,3,2-de]quinolin-7-yl)-3,5-dimethyl-2-oxo-2,3-dihydrobenzo[d]thiazol-6-yl)acetic acid] | 292
3 | Cc1cc2c(sc(=O)n2Cc2cccc(C(F)(F)F)c2)c(-c2ccc3c4c(ccnc24)CCO3)c1[C@H](OC(C)(C)C)C(=O)O (atropisomer, axis not shown) [Compound 73, (S)-2-tert-butoxy-2-((S)-7-(2,3-dihydropyrano[4,3,2-de]quinolin-7-yl)-5-methyl-2-oxo-3-(3-(trifluoromethyl)benzyl)-2,3-dihydrobenzo[d]thiazol-6-yl)acetic acid] | 52.2
4 | Cc1cc2nc(C3CC3)sc2c(-c2ccc3c4c(cccc24)CCO3)c1[C@H](OC(C)(C)C)C(=O)O [Compound 85, (S)-2-tert-butoxy-2-((S)-2-cyclopropyl-7-(2,3-dihydrobenzo[de]chromen-7-yl)-5-methylbenzo[d]thiazol-6-yl)acetic acid] | 66.4
5 | Cc1cc2nc(C3CCC3)sc2c(-c2ccc3c4c(ccnc24)CCO3)c1[C@H](OC(C)(C)C)C(=O)O (atropisomer, axis not shown) [Compound 82, (S)-2-tert-butoxy-2-((S)-2-cyclobutyl-7-(2,3-dihydropyrano[4,3,2-de]quinolin-7-yl)-5-methylbenzo[d]thiazol-6-yl)acetic acid] | 40.2
6 | Cc1cc2c(sc(=O)n2Cc2ccccc2C(F)(F)F)c(-c2ccc3c4c(ccnc24)CCO3)c1[C@H](OC(C)(C)C)C(=O)O (atropisomer, axis not shown) [Compound 71, (S)-2-tert-butoxy-2-((S)-7-(2,3-dihydropyrano[4,3,2-de]quinolin-7-yl)-5-methyl-2-oxo-3-(2-(trifluoromethyl)benzyl)-2,3-dihydrobenzo[d]thiazol-6-yl)acetic acid] | 984
7 | COc1nc2cc(C)c([C@H](OC(C)(C)C)C(=O)O)c(-c3ccc4c5c(ccnc35)CCO4)c2s1 (atropisomer, axis not shown) [Compound 66, (S)-2-tert-butoxy-2-((S)-7-(2,3-dihydropyrano[4,3,2-de]quinolin-7-yl)-2-methoxy-5-methylbenzo[d]thiazol-6-yl)acetic acid] | 22.5
8 | CC(=O)Nc1nc2cc(C)c([C@H](OC(C)(C)C)C(=O)O)c(-c3ccc4c5c(ccnc35)CCO4)c2s1 (atropisomer, axis not shown) [Compound 93, (S)-2-((S)-2-acetamido-7-(2,3-dihydropyrano[4,3,2-de]quinolin-7-yl)-5-methylbenzo[d]thiazol-6-yl)-2-tert-butoxyacetic acid] | 1420
9 | CCc1nc2cc(C)c([C@H](OC(C)(C)C)C(=O)O)c(-c3ccc(Cl)cc3)c2s1 [Compound 9] | 118
10 | Cc1cc2nc(N(C)C)sc2c(-c2ccc(Cl)cc2)c1[C@H](OC(C)(C)C)C(=O)O [Compound 12] | 113
11 | Cc1cc2nc(N(C)CC(=O)N(C)C)sc2c(-c2ccc3c4c(ccnc24)CCO3)c1[C@H](OC(C)(C)C)C(=O)O (atropisomer, axis not shown) [Compound 64, (S)-2-tert-butoxy-2-((R)-7-(2,3-dihydropyrano[4,3,2-de]quinolin-7-yl)-2-((2-(dimethylamino)-2-oxoethyl)(methyl)amino)-5-methylbenzo[d]thiazol-6-yl)acetic acid] | 53000
12 | Cc1cc2nc(C3CC3)sc2c(-c2ccc3c4c(ccnc24)CCO3)c1[C@H](OC(C)(C)C)C(=O)O [Compound 22, (S)-2-tert-butoxy-2-((R)-2-cyclopropyl-7-(2,3-dihydropyrano[4,3,2-de]quinolin-7-yl)-5-methylbenzo[d]thiazol-6-yl)acetic acid] | 170
13 | Cc1cc2nc(C(=O)C3=CCC3)sc2c(-c2ccc(Cl)cc2)c1[C@H](OC(C)(C)C)C(=O)O [Compound 14b] | 480
14 | Cc1cc2nc(C#CC3CC3)sc2c(-c2ccc(Cl)cc2)c1[C@H](OC(C)(C)C)C(=O)O [Compound 14] | 718
15 | Cc1cc2nc(C(C)C)sc2c(-c2ccc3c4c(ccnc24)CCO3)c1[C@H](OC(C)(C)C)C(=O)O (atropisomer, axis not shown) [Compound 88, (S)-2-tert-butoxy-2-((S)-7-(2,3-dihydropyrano[4,3,2-de]quinolin-7-yl)-2-isopropyl-5-methylbenzo[d]thiazol-6-yl)acetic acid] | 13.3
16 | Cc1cc2nc(C3CC3)sc2c(-c2ccc(Cl)cc2)c1[C@H](OC(C)(C)C)C(=O)O [Compound 10] | 121
17 | Cc1cc2c(sc(=O)n2Cc2ccccc2)c(-c2ccc3c4c(ccnc24)CCO3)c1[C@H](OC(C)(C)C)C(=O)O (atropisomer, axis not shown) [Compound 72, (S)-2-((S)-3-benzyl-7-(2,3-dihydropyrano[4,3,2-de]quinolin-7-yl)-5-methyl-2-oxo-2,3-dihydrobenzo[d]thiazol-6-yl)-2-tert-butoxyacetic acid] | 29.8
18 | Cc1cc2nc(N(C)C)sc2c(-c2ccc3c4c(ccnc24)CCO3)c1[C@H](OC(C)(C)C)C(=O)O [Compound 42, (S)-2-tert-butoxy-2-((S)-7-(2,3-dihydropyrano[4,3,2-de]quinolin-7-yl)-2-(dimethylamino)-5-methylbenzo[d]thiazol-6-yl)acetic acid] | 10.3

Same assay, conditions: MT-4 cells infected with HIV-IIIb (0.004 m.o.i.), 5 days incubation, CellTiter-Glo readout; read-out: EC50

Row | Structure (SMILES) | EC50 [nM]
19 | Cc1cc2nc(N(C)CCN(C)C)sc2c(-c2ccc3c4c(ccnc24)CCO3)c1[C@H](OC(C)(C)C)C(=O)O (atropisomer, axis not shown) [Compound 62, (S)-2-tert-butoxy-2-((R)-7-(2,3-dihydropyrano[4,3,2-de]quinolin-7-yl)-2-((2-(dimethylamino)ethyl)(methyl)amino)-5-methylbenzo[d]thiazol-6-yl)acetic acid] | 4880
20 | Cc1cc2nc(N(C)CC3OCCO3)sc2c(-c2ccc3c4c(ccnc24)CCO3)c1[C@H](OC(C)(C)C)C(=O)O (atropisomer, axis not shown) [Compound 60, (S)-2-((R)-2-(((1,3-dioxolan-2-yl)methyl)(methyl)amino)-7-(2,3-dihydropyrano[4,3,2-de]quinolin-7-yl)-5-methylbenzo[d]thiazol-6-yl)-2-tert-butoxyacetic acid] | 34500
21 | Cc1cc2nc(CC(C)C)sc2c(-c2ccc3c4c(ccnc24)CCO3)c1[C@H](OC(C)(C)C)C(=O)O (atropisomer, axis not shown) [Compound 84, (S)-2-tert-butoxy-2-((R)-7-(2,3-dihydropyrano[4,3,2-de]quinolin-7-yl)-2-isobutyl-5-methylbenzo[d]thiazol-6-yl)acetic acid] | 14900
22 | Cc1cc2nc(C3CCCC3)sc2c(-c2ccc3c4c(ccnc24)CCO3)c1[C@H](OC(C)(C)C)C(=O)O (atropisomer, axis not shown) [Compound 80, (S)-2-tert-butoxy-2-((S)-2-cyclopentyl-7-(2,3-dihydropyrano[4,3,2-de]quinolin-7-yl)-5-methylbenzo[d]thiazol-6-yl)acetic acid] | 136
23 | Cc1cc2nc(N(C)CC(C)C)sc2c(-c2ccc3c4c(ccnc24)CCO3)c1[C@H](OC(C)(C)C)C(=O)O (atropisomer, axis not shown) [Compound 48, (S)-2-tert-butoxy-2-((S)-7-(2,3-dihydropyrano[4,3,2-de]quinolin-7-yl)-2-(isobutyl(methyl)amino)-5-methylbenzo[d]thiazol-6-yl)acetic acid] | 67
24 | Cc1cc2nc(N3CCC3)sc2c(-c2ccc3c4c(ccnc24)CCO3)c1[C@H](OC(C)(C)C)C(=O)O [Compound 35, (S)-2-((S)-2-(azetidin-1-yl)-7-(2,3-dihydropyrano[4,3,2-de]quinolin-7-yl)-5-methylbenzo[d]thiazol-6-yl)-2-tert-butoxyacetic acid] | 12.7
25 | Cc1cc2nc(C3CC3)sc2c(-c2ccc3c4c(ccnc24)CCO3)c1[C@H](OC(C)(C)C)C(=O)O [Compound 21, (S)-2-tert-butoxy-2-((S)-2-cyclopropyl-7-(2,3-dihydropyrano[4,3,2-de]quinolin-7-yl)-5-methylbenzo[d]thiazol-6-yl)acetic acid] | 14.9
26 | Cc1cc2nc(C3CCCC3)sc2c(-c2ccc3c4c(ccnc24)CCO3)c1[C@H](OC(C)(C)C)C(=O)O (atropisomer, axis not shown) [Compound 81, (S)-2-tert-butoxy-2-((R)-2-cyclopentyl-7-(2,3-dihydropyrano[4,3,2-de]quinolin-7-yl)-5-methylbenzo[d]thiazol-6-yl)acetic acid] | 27400
27 | Cc1cc2nc(N3CCC3)sc2c(-c2ccc3c4c(ccnc24)CCO3)c1[C@H](OC(C)(C)C)C(=O)O [Compound 36, (S)-2-((R)-2-(azetidin-1-yl)-7-(2,3-dihydropyrano[4,3,2-de]quinolin-7-yl)-5-methylbenzo[d]thiazol-6-yl)-2-tert-butoxyacetic acid] | 6210
